Measured values: patent publication US8822468B2 (Novartis AG, priority 2008, dated 2014)

molecular target: T1, cMET receptor tyrosine kinase (GST-cMET (969-1390)) (Homo sapiens, UniProt P08581); experiment: EPK cMET profiling assay (LanthaScreen TR-FRET antibody based kinase phosphorylation assay); format: biochemical; conditions: purified recombinant GST-cMET (969-1390), 2 μM ATP, 50 nM Fluorescein-PolyEAY, 60 minutes at room temperature; read-out: c-Met IC50
T1 construct: made in house
Outline: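 GST-cMET cytoplasmic domain (969-1390), 0.3 nM, phosphorylated 50 nM fluorescein-PolyEAY with 2 µM ATP, Mg2+/Mn2+, 0.6% DMSO, 60 min at room temperature. Stopped with EDTA; Tb-PY20 antibody TR-FRET single end-point read. Final compound concentrations 10 to 0.003 µM, 8 points.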

T1 sequence (P08581 969-1390): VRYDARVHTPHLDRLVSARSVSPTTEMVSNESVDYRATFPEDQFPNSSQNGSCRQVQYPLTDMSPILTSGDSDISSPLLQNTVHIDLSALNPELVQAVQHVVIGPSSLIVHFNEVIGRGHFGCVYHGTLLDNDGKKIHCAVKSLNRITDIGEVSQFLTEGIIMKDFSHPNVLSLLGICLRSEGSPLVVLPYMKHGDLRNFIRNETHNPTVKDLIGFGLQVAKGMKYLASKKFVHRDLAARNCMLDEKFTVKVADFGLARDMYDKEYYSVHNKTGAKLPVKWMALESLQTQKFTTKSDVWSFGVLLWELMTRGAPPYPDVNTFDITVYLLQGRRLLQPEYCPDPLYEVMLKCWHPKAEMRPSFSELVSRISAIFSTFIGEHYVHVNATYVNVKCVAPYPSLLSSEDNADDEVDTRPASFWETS

In order of falling IC50:
1. c1ccc(CN2CCC(Nc3ccc4ncc(Cc5ccc6ncccc6c5)n4n3)C2)cc1 (stereo not shown) [Example 117, (1-Benzyl-pyrrolidin-3-yl)-(3-quinolin-6-ylmethyl-imidazo[1,2-b]pyridazin-6-yl)-amine]  630 nM
2. Fc1ccc(-c2ccc3ncc(Cc4ccc5ncccc5c4)n3n2)cc1Cl [Example 68, 6-[6-(3-Chloro-4-fluoro-phenyl)-imidazo[1,2-b]pyridazin-3-ylmethyl]-quinoline]  480 nM
3. Cc1csc(Nc2ccc3ncc(Cc4ccc5ncccc5c4)n3n2)n1 [Example 93]  390 nM
4. CCn1cc(-c2ccc3ncc(C(O)c4cc5cccnc5cc4F)n3n2)cn1 (racemic) [Example 249, (rac)-[6-(1-Ethyl-1H-pyrazol-4-yl)-imidazo[1,2-b]pyridazin-3-yl]-(7-fluoro-quinolin-6-yl)methanol]  380 nM
5. CN(C(=O)OC(C)(C)C)C1CCN(c2ccc3ncc(Cc4ccc5ncccc5c4)n3n2)C1 (racemic) [Example 87, Methyl-[1-(3-quinolin-6-ylmethyl-imidazo[1,2-b]pyridazin-6-yl)-pyrrolidin-3-yl]-carbamic acid tert-butyl ester]  370 nM
6. FC(F)(F)Oc1ccc(-c2ccc3ncc(Cc4ccc5ncccc5c4)n3n2)cc1 [Example 43, 6-[6-(4-Trifluoromethoxy-phenyl)-imidazo[1,2-b]pyridazin-3-ylmethyl]-quinoline]  350 nM
7. CC1CCCCN1c1ccc2ncc(Cc3ccc4ncccc4c3)n2n1 (stereo not shown) [Example 111, 6-[6-(2-Methyl-piperidin-1-yl)-imidazo[1,2-b]pyridazin-3-ylmethyl]-quinoline]  340 nM
8. Cn1cc(-c2ccc3ncc(Cc4ccc5ncc(C(O)CO)n5c4)n3n2)cn1 (stereo not shown) [Example 304, 1-{6-[6-(1-Methyl-1H-pyrazol-4-yl)-imidazo[1,2-b]pyridazin-3-ylmethyl]-imidazo[1,2-a]pyridin-3-yl}-ethane-1,2-diol]  330 nM
9. c1cnc2ccc(Cc3cnc4ccc(-c5ccc6nonc6c5)nn34)cc2c1 [Example 52, 6-(6-Benzo[1,2,5]oxadiazol-5-yl-imidazo[1,2-b]pyridazin-3-ylmethyl)-quinoline]  240 nM
10. Clc1ccc(-c2ccc(-c3ccc4ncc(Cc5ccc6ncccc6c5)n4n3)cn2)cn1 [Example 48, 6′-Chloro-5-(3-quinolin-6-ylmethyl-imidazo[1,2-b]pyridazin-6-yl)-[2,3′]bipyridinyl]  190 nM
11. CC(=O)NCCNc1ccc2ncc(Cc3ccc4ncccc4c3)n2n1 [Example 96, N-[2-(3-Quinolin-6-ylmethyl-imidazo[1,2-b]pyridazin-6-ylamino)-ethyl]-acetamide]  190 nM
12. Fc1cc2ncccc2cc1Cc1cnc2ccc(-c3cnn(C4CCNCC4)c3)nn12 [Example 180, 7-Fluoro-6-[6-(1-piperidin-4-yl-1H-pyrazol-4-yl)-imidazo[1,2-b]pyridazin-3-ylmethyl]-quinoline]  145 nM
13. CS(=O)(=O)c1cccc(Nc2ccc3ncc(Cc4ccc5ncccc5c4)n3n2)c1 [Example 139, (3-Methanesulfonyl-phenyl)-(3-quinolin-6-ylmethyl-imidazo[1,2-b]pyridazin-6-yl)-amine]  130 nM
14. F[C@H]1CCN(c2ccc3ncc(Cc4ccc5ncccc5c4)n3n2)C1 [Example 125, 6-[6-((S)-3-Fluoro-pyrrolidin-1-yl)-imidazo[1,2-b]pyridazin-3-ylmethyl]-quinoline]  130 nM
15. O[C@H]1CCN(c2ccc3ncc(Cc4cc5cccnc5cc4F)n3n2)C1 [Example 261, (S)-1-[3-(7-Fluoro-quinolin-6-ylmethyl)-imidazo[1,2-b]pyridazin-6-yl]-pyrrolidin-3-ol]  120 nM
16. CCC(C)(C)Nc1ccc2ncc(Cc3ccc4ncccc4c3)n2n1 [Example 98, (1,1-Dimethyl-propyl)-(3-quinolin-6-ylmethyl-imidazo[1,2-b]pyridazin-6-yl)-amine]  110 nM
17. Fc1ccc(Nc2ccc3ncc(Cc4ccc5ncccc5c4)n3n2)cc1Cl [Example 137, (3-Chloro-4-fluoro-phenyl)-(3-quinolin-6-ylmethyl-imidazo[1,2-b]pyridazin-6-yl)-amine]  100 nM
18. Cn1cc(-c2ccc3ncc(Cc4ccc5ncc(-c6cccnc6)n5c4)n3n2)cn1 [Example 306, 6-(1-Methyl-1H-pyrazol-4-yl)-3-(3-pyridin-3-yl-imidazo[1,2-a]pyridin-6-ylmethyl)-imidazo[1,2-b]pyridazine]  100 nM
19. FC(F)(F)c1cccc(Nc2ccc3ncc(Cc4ccc5ncccc5c4)n3n2)c1 [Example 127, (3-Quinolin-6-ylmethyl-imidazo[1,2-b]pyridazin-6-yl)-(3-trifluoromethyl-phenyl)-amine]  90 nM
20. CC(C)(C)OC(=O)N1CCC(n2cc(-c3ccc4ncc(Cc5c(F)cc6ncccc6c5F)n4n3)cn2)CC1 [Example 244, 4-{4-[3-(5,7-Difluoro-quinolin-6-ylmethyl)-imidazo[1,2-b]pyridazin-6-yl]-pyrazol-1-yl}-piperidine-1-carboxylic acid tert-butyl ester]  87 nM
21. OCCCc1ccc(-c2ccc3ncc(Cc4ccc5ncccc5c4)n3n2)cc1 [Example 64, 3-[4-(3-Quinolin-6-ylmethyl-imidazo[1,2-b]pyridazin-6-yl)-phenyl]-propan-1-ol]  79 nM
22. CCC(CC)Nc1ccc2ncc(Cc3ccc4ncccc4c3)n2n1 [Example 90, (1-Ethyl-propyl)-(3-quinolin-6-ylmethyl-imidazo[1,2-b]pyridazin-6-yl)-amine]  74 nM
23. c1ccc(Nc2ccc3ncc(Cc4ccc5ncccc5c4)n3n2)cc1 [Example 122, Phenyl-(3-quinolin-6-ylmethyl-imidazo[1,2-b]pyridazin-6-yl)-amine]  73 nM
24. Cn1cc(-c2ccc3ncc(Cc4ccc(O)cc4F)n3n2)cn1 [Example 202, 3-Fluoro-4-[6-(1-methyl-1H-pyrazol-4-yl)-imidazo[1,2-b]pyridazin-3-ylmethyl]-phenol]  68 nM
25. CN1CCC(n2cc(-c3ccc4ncc(Cc5cc6cccnc6cc5F)n4n3)cn2)CC1 [Example 181, 7-Fluoro-6-{6-[1-(1-methyl-piperidin-4-yl)-1H-pyrazol-4-yl]-imidazo[1,2-b]pyridazin-3-ylmethyl}-quinoline]  65 nM
26. NC(=O)c1cccc(-c2ccc3ncc(Cc4ccc5ncccc5c4)n3n2)c1 [Example 57, 3-(3-Quinolin-6-ylmethyl-imidazo[1,2-b]pyridazin-6-yl)-benzamide]  63 nM
27. CC(c1ccc2n[nH]cc2c1)c1cnc2ccc(-c3cnn(CCO)c3)nn12 (racemic) [Example 190, (rac)-2-(4-{3-[1-(2H-Indazol-5-yl)-ethyl]-imidazo[1,2-b]pyridazin-6-yl}-pyrazol-1-yl)-ethanol]  56 nM
28. CC(c1cc2cn[nH]c2cc1F)c1cnc2ccc(-c3cnn(C)c3)nn12 (racemic) [Example 164, (rac)-3-[1-(6-Fluoro-1H-indazol-5-yl)-ethyl]-6-(1-methyl-1H-pyrazol-4-yl)-imidazo[1,2-b]pyridazine]  54 nM
29. CNC1CCN(c2ccc3ncc(Cc4ccc5ncccc5c4)n3n2)C1 (racemic) [Example 119, (rac)-Methyl-[1-(3-quinolin-6-ylmethyl-imidazo[1,2-b]pyridazin-6-yl)-pyrrolidin-3-yl]-amine]  42 nM
30. Cn1cc(-c2ccc3ncc(Cc4cc5cccnc5cc4Cl)n3n2)cn1 [Example 241, 7-Chloro-6-[6-(1-methyl-1H-pyrazol-4-yl)-imidazo[1,2-b]pyridazin-3-ylmethyl]-quinoline]  37.5 nM
31. OCCn1cc(-c2ccc3ncc(Cc4cc5cccnc5cc4Cl)n3n2)cn1 [Example 243, 2-{4-[3-(7-Chloro-quinolin-6-ylmethyl)-imidazo[1,2-b]pyridazin-6-yl]-pyrazol-1-yl}-ethanol]  37 nM
32. Cn1cc(-c2ccc3ncc(Cc4c[nH]c5ncccc45)n3n2)cn1 [Example 199, 6-(1-Methyl-1H-pyrazol-4-yl)-3-(1H-pyrrolo[2,3-b]pyridin-3-ylmethyl)-imidazo[1,2-b]pyridazine]  35.5 nM
33. Cn1ccc2cc(-c3ccc4ncc(Cc5ccc6ncccc6c5)n4n3)ccc21 [Example 37, 6-[6-(1-Methyl-1H-indol-5-yl)-imidazo[1,2-b]pyridazin-3-ylmethyl]-quinoline]  30 nM
34. CNC(=O)c1ccc(-c2ccc3ncc(Cc4ccc5ncccc5c4)n3n2)cc1Cl [Example 71, 2-Chloro-N-methyl-4-(3-quinolin-6-ylmethyl-imidazo[1,2-b]pyridazin-6-yl)-benzamide]  24 nM
35. O=Cc1cccc(-c2ccc3ncc(Cc4ccc5ncccc5c4)n3n2)c1 [Example 24, 3-(3-Quinolin-6-ylmethyl-imidazo[1,2-b]pyridazin-6-yl)-benzaldehyde]  23.5 nM
36. CC(c1ccc2ncccc2c1)c1cnc2ccc(-c3cnn(CCO)c3)nn12 (racemic) [Example 177, (rac)-2-{4-[3-(1-Quinolin-6-yl-ethyl)-imidazo[1,2-b]pyridazin-6-yl]-pyrazol-1-yl}-ethanol]  20 nM
37. C[C@@H](c1ccc2[nH]ncc2c1)c1cnc2ccc(-c3cnn(C)c3)nn12 [Example 195, 3-[(S)-1-(2H-Indazol-5-yl)-ethyl]-6-(1-methyl-1H-pyrazol-4-yl)-imidazo[1,2-b]pyridazine]  14 nM
38. Cn1cc(-c2ccc3ncc(Cc4ccc5ncccc5c4)n3n2)cn1 [Example 2, 6-[6-(1-Methyl-1H-pyrazol-4-yl)-imidazo[1,2-b]pyridazin-3-ylmethyl]-quinoline]  14 nM
39. Fc1cc2ncccc2c(F)c1Cc1cnc2ccc(-c3cn[nH]c3)nn12 [Example 263, 5,7-Difluoro-6-[6-(1H-pyrazol-4-yl)-imidazo[1,2-b]pyridazin-3-ylmethyl]-quinoline]  10 nM
40. CNC1CCN(c2ccc3ncc(Cc4cc5cccnc5cc4F)n3n2)C1 (racemic) [Example 260, (rac)-{1-[3-(7-fluoro-quinolin-6-ylmethyl)-imidazo[1,2-b]pyridazin-6-yl]-pyrrolidin-3-yl}-methylamine]  5.2 nM
